From patent publication EP0407583A1, “DERIVATIVES OF DICHLOR[…] ACYLAMIDO[…] AND INSECTICIDAL, FU[…] HEMATOCIDAL PREPARATIONS BASED ON THEM” (priority 1989, dated 1990)

Experiments:
[1] = tested on: Alternaria sobani; test: Inhibition of phytopathogenic fungi growth, laboratory test on potato-dextrose agar; format: cell-based; details: active principle 0.01 % by mass in potato-dextrose agar
Procedure: (§1) A fungicidal composition based on this compound was prepared in the form of a 0.01% solution thereof in distilled water. A fungicidal action of the composition, according to the invention, was tested for inhibition of vegetative fungi growth such as Fusarium moniliforme, Ventura inaequalis, Rhyzoctonia ciolaceae, Botrytis cinereae, Verticillium albo-atrum, Diplodia zeae, Fusarium oxysporum, Rhoma betae, Rhyzoctonia aderholdii, Aspergillus niger, Alternaria sobani, Botrytis allii, Aspergillus fumigatis, Fusarium culmorum, Penicillium cyclopium affecting potato, sugar beet, cotton seeds either in laboratory or field conditions. For testing it to the Petri dishes containing potato-dextrose agar the composition of the invention was.added at the concentration of an active principle of 0.01 % by mass. The Petri dishes containing the same agar culture were inoculated with a mycelium of phytopathogenic fungi. For control dishes the phytopathogenic fungi were inoculated on agar without using the composition of the invention. A fungicidal effect of the composition, according to the invention was tested in comparison with the known fungicidal compositions based on 2,3-dichloro-1,4-naphthoquinone, zinc N,N'-ethylene-bis-dithiocarbamate and tetramethylthiuram disulphide.

[2] = tested on: Aspergillus fumigatis; test: as above; format: cell-based; details: active principle 0.01 % by mass in potato-dextrose agar
Procedure: as §1

[3] = tested on: Aspergillus niger; test: as above; format: cell-based; details: active principle 0.01 % by mass in potato-dextrose agar
Procedure: as §1

[4] = tested on: Botrytis allii; test: as above; format: cell-based; details: active principle 0.01 % by mass in potato-dextrose agar
Procedure: as §1

[5] = tested on: Botrytis cinereae; test: as above; format: cell-based; details: active principle 0.01 % by mass in potato-dextrose agar
Procedure: as §1

[6] = tested on: Diplodia zeae; test: as above; format: cell-based; details: active principle 0.01 % by mass in potato-dextrose agar
Procedure: as §1

[7] = tested on: Fusarium culmorum; test: as above; format: cell-based; details: active principle 0.01 % by mass in potato-dextrose agar
Procedure: as §1

[8] = tested on: Fusarium moniliforme; test: as above; format: cell-based; details: active principle 0.01 % by mass in potato-dextrose agar
Procedure: as §1

[9] = tested on: Fusarium oxysporum; test: as above; format: cell-based; details: active principle 0.01 % by mass in potato-dextrose agar
Procedure: as §1

[10] = tested on: Penicillium cyclopium; test: as above; format: cell-based; details: active principle 0.01 % by mass in potato-dextrose agar
Procedure: as §1

[11] = tested on: Rhoma betae; test: as above; format: cell-based; details: active principle 0.01 % by mass in potato-dextrose agar
Procedure: as §1

[12] = tested on: Rhyzoctonia aderholdii; test: as above; format: cell-based; details: active principle 0.01 % by mass in potato-dextrose agar
Procedure: as §1

[13] = tested on: Rhyzoctonia violaceae; test: as above; format: cell-based; details: active principle 0.01 % by mass in potato-dextrose agar
Procedure: as §1

[14] = tested on: Venturia inaequalis; test: as above; format: cell-based; details: active principle 0.01 % by mass in potato-dextrose agar
Procedure: as §1

[15] = tested on: Verticillium albo-atrum; test: as above; format: cell-based; details: active principle 0.01 % by mass in potato-dextrose agar
Procedure: as §1

[16] = tested on: Alternaria sobani; test: Inhibition of phytopathogenic fungi, field test on affected potato plants; format: in vivo; details: 5 m^2 plots of affected potato plants sprayed
Excerpt: (§2) For field tests the plots of 5 m^2 in size with potato plants affected by Fusarium moniliforme, Venturia inaequalis, Rhyzoctonia violaceae, Botrytis cinereae, Verticillium albo-atrum, Diplodia zeae, Fusarium oxysporum, Rhoma betae, Rhyzoctonia aderholdii, Aspergillus niger, Alternaria sobani, Botrytis allii, Aspergillus fumigatis, Fusarium culmorum, Penicillium cyclopium were sprayed with the fungicide of the invention. To compare, the similar plots of the affected potato plants were aprayed with the known compositions indicated above.

[17] = tested on: Aspergillus fumigatis; test: as above; format: in vivo; details: 5 m^2 plots of affected potato plants sprayed
Excerpt: as §2

[18] = tested on: Aspergillus niger; test: as above; format: in vivo; details: 5 m^2 plots of affected potato plants sprayed
Excerpt: as §2

[19] = tested on: Botrytis allii; test: as above; format: in vivo; details: 5 m^2 plots of affected potato plants sprayed
Excerpt: as §2

[20] = tested on: Botrytis cinereae; test: as above; format: in vivo; details: 5 m^2 plots of affected potato plants sprayed
Excerpt: as §2

[21] = tested on: Diplodia zeae; test: as above; format: in vivo; details: 5 m^2 plots of affected potato plants sprayed
Excerpt: as §2

[22] = tested on: Fusarium culmorum; test: as above; format: in vivo; details: 5 m^2 plots of affected potato plants sprayed
Excerpt: as §2

[23] = tested on: Fusarium moniliforme; test: as above; format: in vivo; details: 5 m^2 plots of affected potato plants sprayed
Excerpt: as §2

[24] = tested on: Fusarium oxysporum; test: as above; format: in vivo; details: 5 m^2 plots of affected potato plants sprayed
Excerpt: as §2

[25] = tested on: Penicillium cyclopium; test: as above; format: in vivo; details: 5 m^2 plots of affected potato plants sprayed
Excerpt: as §2

[26] = tested on: Rhoma betae; test: as above; format: in vivo; details: 5 m^2 plots of affected potato plants sprayed
Excerpt: as §2

[27] = tested on: Rhyzoctonia aderholdii; test: as above; format: in vivo; details: 5 m^2 plots of affected potato plants sprayed
Excerpt: as §2

[28] = tested on: Rhyzoctonia violaceae; test: as above; format: in vivo; details: 5 m^2 plots of affected potato plants sprayed
Excerpt: as §2

[29] = tested on: Venturia inaequalis; test: as above; format: in vivo; details: 5 m^2 plots of affected potato plants sprayed
Excerpt: as §2

[30] = tested on: Verticillium albo-atrum; test: as above; format: in vivo; details: 5 m^2 plots of affected potato plants sprayed
Excerpt: as §2

[31] = Solubility (qualitative); details: water, alcohols, acetone

Row | SMILES | Inhibition of growth of phytopathogenic fungi colonies, % Alternaria sobani test laboratory [1] [%] | Inhibition of growth of phytopathogenic fungi colonies, % Aspergillus fumigatis Tests laboratory [2] [%] | Inhibition of growth of phytopathogenic fungi colonies, % Aspergillus niger test laboratory [3] [%] | Inhibition of growth of phytopathogenic fungi colonies, % Botrytis allii test laboratory [4] [%] | Inhibition of growth of phytopathogenic fungi colonies, % Botrytis cinereae test laboratory [5] [%] | Inhibition of growth of phytopathogenic fungi colonies, % Diplodia zeae test laboratory [6] [%] | Inhibition of growth of phytopathogenic fungi colonies, % Fusarium culmorum Tests laboratory [7] [%] | Inhibition of growth of phytopathogenic fungi colonies, % Fusatium monili-forme test laboratory [8] [%] | Inhibition of growth of phytopathogenic fungi colonies, % Fusarium oxysporum test laboratory [9] [%] | Inhibition of growth of phytopathogenic fungi colonies, % Penicillium cyclopium Tests laboratory [10] [%] | Inhibition of growth of phytopathogenic fungi colonies, % Rhoma betae test laboratory [11] [%] | Inhibition of growth of phytopathogenic fungi colonies, % Rhyzoctonia aderholdii test laboratory [12] [%] | Inhibition of growth of phytopathogenic fungi colonies, % Rhyzoctonia violaceae test laboratory [13] [%] | Inhibition of growth of phytopathogenic fungi colonies, % Venturia inaequalis test laboratory [14] [%] | Inhibition of growth of phytopathogenic fungi colonies, % Verticillium albo--atrum test laboratory [15] [%] | Inhibition of growth of phytopathogenic fungi colonies, % Alternaria sobani test field [16] [%] | Inhibition of growth of phytopathogenic fungi colonies, % Aspergillus fumigatis Tests field [17] [%] | Inhibition of growth of phytopathogenic fungi colonies, % Aspergillus niger test field [18] [%] | Inhibition of growth of phytopathogenic fungi colonies, % Botrytis allii test field [19] [%] | Inhibition of growth of phytopathogenic fungi colonies, % Botrytis cinereae test field [20] [%] | other results
1 | COP(=O)(NC(=O)C(Cl)(Cl)CCl)Nc1ccccc1 (stereo not drawn) [Example 11, methyl α, α , β-trichloropropyonylamidophosphate monoanilide] | 69 | 93 | 100 | 78 | 43 | 100 | 100 | 39 | 62 | 95 | 67 | 100 | 62 | 54 | 56 | 66 | 93 | 96 | 78 | 39 | Inhibition of growth of phytopathogenic fungi colonies, % Diplodia zeae test field [21]: 98%; Inhibition of growth of phytopathogenic fungi colonies, % Fusarium culmorum Tests field [22]: 98%; Inhibition of growth of phytopathogenic fungi colonies, % Fusatium monili-forme test field [23]: 38%; Inhibition of growth of phytopathogenic fungi colonies, % Fusarium oxysporum test field [24]: 60%; Inhibition of growth of phytopathogenic fungi colonies, % Penicillium cyclopium Tests field [25]: 90%; Inhibition of growth of phytopathogenic fungi colonies, % Rhoma betae test field [26]: 65%; Inhibition of growth of phytopathogenic fungi colonies, % Rhyzoctonia aderholdii test field [27]: 100%; Inhibition of growth of phytopathogenic fungi colonies, % Rhyzoctonia violaceae test field [28]: 60%; Inhibition of growth of phytopathogenic fungi colonies, % Venturia inaequalis test field [29]: 52%; Inhibition of growth of phytopathogenic fungi colonies, % Verticillium albo--atrum test field [30]: 54%; solubility [31]: soluble in water, alcohols, acetone
2 | O=C(NP(=O)(NC(CO)C(O)c1ccc([N+](=O)[O-])cc1)NC(CO)C(O)c1ccc([N+](=O)[O-])cc1)c1ccc(Cl)cc1 (stereo not drawn) [Example 12, para-chlorobenzoylamidophosphoric acid di-1-para-nitrophenyl-1,3-propandiol-2-amide] | 48 | 87 | 66 | 100 | 34 | 100 | 66 | 59 | 60 | 87 | 64 | 100 | 24 | 70 | 100 | 46 | 80 | 59 | 99 | 33 | Inhibition of growth of phytopathogenic fungi colonies, % Diplodia zeae test field [21]: 98%; Inhibition of growth of phytopathogenic fungi colonies, % Fusarium culmorum Tests field [22]: 61%; Inhibition of growth of phytopathogenic fungi colonies, % Fusatium monili-forme test field [23]: 56%; Inhibition of growth of phytopathogenic fungi colonies, % Fusarium oxysporum test field [24]: 59%; Inhibition of growth of phytopathogenic fungi colonies, % Penicillium cyclopium Tests field [25]: 84%; Inhibition of growth of phytopathogenic fungi colonies, % Rhoma betae test field [26]: 63%; Inhibition of growth of phytopathogenic fungi colonies, % Rhyzoctonia aderholdii test field [27]: 100%; Inhibition of growth of phytopathogenic fungi colonies, % Rhyzoctonia violaceae test field [28]: 22%; Inhibition of growth of phytopathogenic fungi colonies, % Venturia inaequalis test field [29]: 65%; Inhibition of growth of phytopathogenic fungi colonies, % Verticillium albo--atrum test field [30]: 100%; solubility [31]: soluble in water, alcohols, acetone
3 | O=C(NP(=O)(Nc1ccc(Cl)cc1[N+](=O)[O-])Nc1ccc(Cl)cc1[N+](=O)[O-])c1ccc(Cl)cc1 [Example 14, para-chlorobenzoylamidophosphoric acid di-para-chloro--ortho-nitroanilide] | 100 | 100 | 6 | 100 | 0 | 100 | 100 | 56 | 50 | 79 | 68 | 100 | 35 | 50 | 40 | 93 | 93 | 5 | 98 | 0 | Inhibition of growth of phytopathogenic fungi colonies, % Diplodia zeae test field [21]: 100%; Inhibition of growth of phytopathogenic fungi colonies, % Fusarium culmorum Tests field [22]: 100%; Inhibition of growth of phytopathogenic fungi colonies, % Fusatium monili-forme test field [23]: 55%; Inhibition of growth of phytopathogenic fungi colonies, % Fusarium oxysporum test field [24]: 48%; Inhibition of growth of phytopathogenic fungi colonies, % Penicillium cyclopium Tests field [25]: 71%; Inhibition of growth of phytopathogenic fungi colonies, % Rhoma betae test field [26]: 67%; Inhibition of growth of phytopathogenic fungi colonies, % Rhyzoctonia aderholdii test field [27]: 100%; Inhibition of growth of phytopathogenic fungi colonies, % Rhyzoctonia violaceae test field [28]: 34%; Inhibition of growth of phytopathogenic fungi colonies, % Venturia inaequalis test field [29]: 49%; Inhibition of growth of phytopathogenic fungi colonies, % Verticillium albo--atrum test field [30]: 39%; solubility [31]: soluble in water, alcohols, acetone
